Results published in the NIST ThermoML archive (doi:10.1021/je200350a).
± gives the expanded uncertainty stated by the source.

Details: 101.33 kPa, Liquid; for viscosity: Capillary tube (Ostwald / Ubbelohde) method

Row | Structure (SMILES) | mass density (293.15 K) [kg/m3] | viscosity (293.15 K) [mPa·s] | mass density (298.15 K) [kg/m3] | viscosity (298.15 K) [mPa·s] | mass density (303.15 K) [kg/m3] | viscosity (303.15 K) [mPa·s] | mass density (308.15 K) [kg/m3] | viscosity (308.15 K) [mPa·s]
1 | CCCCBr [1-bromobutane] | 1279.1 ± 1.5 | 0.6473 ± 0.0064 | 1272.2 ± 1.4 | 0.6096 ± 0.0061 | 1265.2 ± 1.4 | 0.5811 ± 0.0058 | 1257.2 ± 1.4 | 0.55 ± 0.0056
2 | CC1CCCCC1 [methylcyclohexane] | 770.1 ± 1.2 | 0.7293 ± 0.0071 | 766.7 ± 1.2 | 0.6827 ± 0.0067 | 761.8 ± 1.2 | 0.6385 ± 0.0063 | 757.6 ± 1.2 | 0.5997 ± 0.006
3 | O=[N+]([O-])c1ccccc1 [nitrobenzene] | 1202.2 ± 1.2 | 1.983 ± 0.018 | 1197.2 ± 1.2 | 1.809 ± 0.016 | 1191.5 ± 1.2 | 1.659 ± 0.015 | 1186.4 ± 1.2 | 1.529 ± 0.014
